Reference: patent US20110237665A1, “Agrochemical Composition Comprising Pesticide and UV Absorber” (BASF SE, priority 2008, published 2011)
Several values for one entry are separate records, joined by “and”; a condition that tells them apart may be missing. Equal entries are not always repeated.

Assays:
[1] = Light exposure of dried metaflumizone formulation with UV absorber (Atlas Suntest, seven days), residual content by UPLC; format: physicochemical; details: 100 g/l metaflumizone, 40 g/l UV absorber, exposed to light seven days, unexposed blank = 100%
Description: A formulation comprising 100 g/l of metaflumizone and 40 g/l of UV absorber was prepared by two different methods: a) Wet grinding with subsequent addition of UV absorber as in Example 9. b) Wet grinding with UV absorber as in Example 8. About 20 mg of the mixture prepared in this way were applied to a microscope slide, allowed to dry on for 30 minutes and exposed to light continuously for seven days (Atlas Suntest CRT plus, “Outdoor” setting, exposure to light corresponds to the same spectrum and intensity as normal sunlight at midday in summer). After the exposure time, the samples were dissolved in dimethylsulfoxide. […] For comparison, a sample without UV absorber was also allowed to run (reference) in each exposure series. Evaluation: 2 samples were dissolved again as blank samples immediately after the drying on, without exposure to light, and the content of metaflumizone was determined. The resulting mean was set at 100% and the remaining samples were standardized against this.

[2] = Determination of the surface tension of the UV absorbers; format: physicochemical; details: 25° C.; UV absorber concentrations from about 1 mg/l to 5,000 mg/l; water to air
Description: The surface tension (ST) of the UV absorbers was determined at 25° C. at concentrations of the UV absorber of from about 1 mg/l to 5,000 mg/l. The ST of water to air is, for comparison, 72.4 mN/m, the ST of commercial surfactants is about 30-35 mN/m.

[3] = formulation by method a) (wet grinding, subsequent addition of UV absorber)

For “2,4,6-trianilino-p-(carboxy-[Pluriol A500E]-yl)-1,3,5-triazine [Example 4B]”, the “Residual content of metaflumizone (%)” value [1, 3] was 77.5%.
In the case of “2-cyano-3,3-diphenyl-acrylic acid [Pluriol A500E] ester [Example 2B]”, the “Residual content of metaflumizone (%)” value [1, 3] is reported as 76.7%.
In the case of “2-cyano-3,3-diphenylacrylic acid [EO-tridecanol]ester [Example 2D]”, the “ST [mN/m] (surface tension)” value [2] is reported as 33.9 mN/m.
For “3,6,9,12-tetraoxatridecylcinnamic acid amide [Example 6A]”, the “Residual content of metaflumizone (%)” value [1, 3] was 74.7%.
With `COCCOCCOCCOCCOCCOCCOCCOC(=O)C(C#N)=C(c1ccccc1)c1ccccc1` [Example 2A, 2-cyano-3,3-diphenyl-acrylic acid [Pluriol A350E] ester] the “Residual content of metaflumizone (%)” value [1, 3] was 87.1% and the “ST [mN/m] (surface tension)” value [2] was 43.1 mN/m.
For `COCCOCCOCCOCCOCCOCCOCCOC(=O)COc1ccc(C(=O)c2ccccc2)c(O)c1` [Example 3B, (4-benzoyl-3-hydroxy-phenoxy)-acetic acid [Pluriol A350E] ester], the “Residual content of metaflumizone (%)” value [1, 3] was 85.9% and 83.2%, the “Residual content of metaflumizone (%)” value ([1]; formulation by method b) (wet grinding with UV absorber)) was 82.8% and the “ST [mN/m] (surface tension)” value [2] was 45.7 mN/m.
With `COCCOCCOCCOCCOC(=O)C=Cc1ccccc1` [Example 6B, cinnamic acid 3,6,9,12-tetraoxatridecyl ester] the “Residual content of metaflumizone (%)” value [1, 3] was 66.5%.
In the case of “p-Aminobenzoic acid ethoxylate [Uvinul P25, reference compound]”, the “Residual content of metaflumizone (%)” value [1, 3] is reported as 53.3%.
